Laboratory results as given in patent US11779014B2, “Adjuvants” (SYNGENTA PARTICIPATIONS AG, priority 2017, dated 2023).

Tested on: Avena fatua (AVEFA)
Test: Glasshouse adjuvancy test for pinoxaden on AVEFA
Assay type: in vivo
Conditions: total surfactant 0.2% w/v, 21 days
Procedure: The efficacy of 1:1 blends of oleyl 20EO with oleyl 20EO with either n-hexanoyl, n-octanoyl or 2-ethyl hexanoyl ester caps as adjuvants for the herbicide pinoxaden was tested in a glasshouse against two weed species, sown into standard soil in pots and cultivated under controlled conditions in a glasshouse (20/16° C. day/night; 16 hours light; 65% humidity). Pinoxaden was added to the spray tank as a standard EC (emulsifiable concentrate) formulation. The plants were sprayed with pinoxaden at rates of 7.5 or 15 grams of pesticide per hectare using a laboratory track sprayer which delivered the aqueous spray composition at a rate of 200 litres per hectare, using a flat fan nozzle (Teejet 11002VS) at 2 bar. The spray solutions also contained the oleyl 20EO alone or in the 1:1 blends with the capped surfactants. The adjuvants were added to the spray solution at a total surfactant rate of 0.2% w/v. All spray solutions also contained 10% w/w of iso-propanol. The weed species and their BBCH growth stage at spraying were Avena fatua (AVEFA; growth stage 13) and Setaria viridis (SETVI; growth stage 13). Each spray test was replicated three times. The test plants were then grown in a glasshouse under controlled conditions (20/16° C. day/night; 16 hours light; 65% humidity) and watered twice a day. The efficacy of the herbicide was assessed visually and expressed as a percentage of the leaf area killed. Samples were assessed at a time period of 21 days following application.
Dodecyl 23EO and hexadecyl 20EO were capped with an n-hexyl ether cap. The efficacy of 1:1 blends of these with their uncapped counterparts were tested as adjuvants for the herbicide pinoxaden was tested in a glasshouse against two weed species, sown into standard soil in pots and cultivated under controlled conditions in a glasshouse (20/16° C. day/night; 16 hours light; 65% humidity). Pinoxaden was added to the spray tank as a standard EC (emulsifiable concentrate) formulation. The plants were sprayed with pinoxaden at a.i. rates of 7.5 or 15 grams per hectare using a laboratory track sprayer which delivered the aqueous spray composition at a rate of 200 litres per hectare, using a flat fan nozzle (Teejet 11002VS) at 2 bar. The spray solutions tested included the capped and uncapped alone or in the 1:1 blends with the capped surfactants. The adjuvants were added to the spray solution at a total surfactant rate of 0.2% w/v. All spray solutions also contained 10% w/w of iso-propanol. The weed species and their BBCH growth stage at spraying was Avena fatua (AVEFA; growth stage 12). Each spray test was replicated three times. The test plants were then grown in a glasshouse under controlled conditions (20/16° C. day/night; 16 hours light; 65% humidity) and watered twice a day. The efficacy of the herbicide was assessed visually and expressed as a percentage of the leaf area killed. Samples were assessed at a time period of 21 days following application.
Oleyl 20EO was capped with -butyl, n-pentyl and n-benzyl caps. The efficacy of 1:1 blends of these with their uncapped counterparts were tested as adjuvants for the herbicide pinoxaden was tested in a glasshouse against two weed species, sown into standard soil in pots and cultivated under controlled conditions in a glasshouse (20/16° C. day/night; 16 hours light; 65% humidity). Pinoxaden was added to the spray tank as a standard EC (emulsifiable concentrate) formulation. The plants were sprayed with pinoxaden at a.i. rates of 7.5 or 15 grams per hectare using a laboratory track sprayer which delivered the aqueous spray composition at a rate of 200 litres per hectare, using a flat fan nozzle (Teejet 11002VS) at 2 bar. The spray solutions tested included the capped and uncapped alone or in the 1:1 blends with the capped surfactants. The adjuvants were added to the spray solution at a total surfactant rate of 0.2% w/v. All spray solutions also contained 10% w/w of iso-propanol.

Compound: CCCCCCCC/C=C\CCCCCCCCOCCOCCOCCOCCOCCOCCOCCOCCOCCOCCOCCOCCOCCOCCOCCOCCOCCOCCOCCOCCO [Oleyl 20EO, oleyl 20 ethoxylate]
- Mean control (pinoxaden 7.5 g ai/ha, Example 4): 65.0%
- Mean control (pinoxaden 15 g ai/ha, Example 4): 86.7%
- Mean control (pinoxaden 15 g ai/ha, Example 9, growth stage 12): 92.7%
